Legend:
[1] = biological target: Epidermal growth factor receptor (Homo sapiens, UniProt P00533); test: Inhibition of wild-type EGFR (unknown origin) phosphorylation
[2] = biological target: Epidermal growth factor receptor (Homo sapiens, UniProt P00533, C797S/L858R/T790M); test: Inhibition of EGFR L858R/T790M/C797S mutant (unknown origin) phosphorylation
[3] = biological target: Epidermal growth factor receptor (Homo sapiens, UniProt P00533, C797S/EX19DEL/T790M); test: Inhibition of EGFR Del19/T790M/C797S mutant (unknown origin) phosphorylation
BaF3 [4] = test: Inhibition of cell proliferation of mouse BaF3 cells expressing EGFR Del19/T790M/C797S mutant (unknown origin); assay type: functional
BaF3 [5] = test: Inhibition of cell proliferation of mouse BaF3 cells expressing wild-type EGFR (unknown origin); assay type: functional
BaF3 [6] = test: Inhibition of cell proliferation of mouse BaF3 cells expressing EGFR L858R/T790M/C797S mutant (unknown origin); assay type: functional

Chain of Epidermal growth factor receptor (Homo sapiens, UniProt P00533, C797S/EX19DEL/T790M) (P00533 whole entry, looked up, stated change not applied): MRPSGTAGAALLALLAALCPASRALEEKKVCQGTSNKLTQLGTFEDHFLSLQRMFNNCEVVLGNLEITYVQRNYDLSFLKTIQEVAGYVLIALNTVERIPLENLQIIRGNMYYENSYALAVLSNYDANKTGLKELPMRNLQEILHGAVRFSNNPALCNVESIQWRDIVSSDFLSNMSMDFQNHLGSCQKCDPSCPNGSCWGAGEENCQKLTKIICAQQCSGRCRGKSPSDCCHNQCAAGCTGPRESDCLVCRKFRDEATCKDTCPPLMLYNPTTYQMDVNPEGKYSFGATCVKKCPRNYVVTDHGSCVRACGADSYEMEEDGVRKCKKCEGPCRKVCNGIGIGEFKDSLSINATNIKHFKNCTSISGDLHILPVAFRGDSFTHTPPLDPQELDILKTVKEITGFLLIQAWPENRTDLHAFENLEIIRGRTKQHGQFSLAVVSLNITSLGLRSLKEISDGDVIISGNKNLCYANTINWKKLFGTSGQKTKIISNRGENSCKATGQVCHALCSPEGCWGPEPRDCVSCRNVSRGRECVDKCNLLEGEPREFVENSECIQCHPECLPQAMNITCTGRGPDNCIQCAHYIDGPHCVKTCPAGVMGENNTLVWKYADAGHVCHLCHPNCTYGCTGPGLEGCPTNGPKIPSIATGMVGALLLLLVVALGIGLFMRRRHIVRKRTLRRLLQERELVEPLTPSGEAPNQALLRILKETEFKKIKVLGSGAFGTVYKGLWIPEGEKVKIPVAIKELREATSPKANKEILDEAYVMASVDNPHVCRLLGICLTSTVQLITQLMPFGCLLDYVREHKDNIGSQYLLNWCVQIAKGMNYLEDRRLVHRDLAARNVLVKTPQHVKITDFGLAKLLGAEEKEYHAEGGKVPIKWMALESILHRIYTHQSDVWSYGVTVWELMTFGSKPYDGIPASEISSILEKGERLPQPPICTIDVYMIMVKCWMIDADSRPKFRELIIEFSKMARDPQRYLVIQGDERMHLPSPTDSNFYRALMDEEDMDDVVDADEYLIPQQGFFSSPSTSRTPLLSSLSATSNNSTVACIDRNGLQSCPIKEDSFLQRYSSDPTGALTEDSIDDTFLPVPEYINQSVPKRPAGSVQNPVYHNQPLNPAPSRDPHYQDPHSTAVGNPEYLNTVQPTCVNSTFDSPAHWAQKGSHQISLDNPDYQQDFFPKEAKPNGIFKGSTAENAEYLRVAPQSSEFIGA
Chain of Epidermal growth factor receptor (Homo sapiens, UniProt P00533) (P00533 whole entry): as the sequence (P00533 whole entry, looked up, stated change not applied) above
Chain of Epidermal growth factor receptor (Homo sapiens, UniProt P00533, C797S/L858R/T790M) (P00533 25-1210 T790M/C797S/L858R limits assumed): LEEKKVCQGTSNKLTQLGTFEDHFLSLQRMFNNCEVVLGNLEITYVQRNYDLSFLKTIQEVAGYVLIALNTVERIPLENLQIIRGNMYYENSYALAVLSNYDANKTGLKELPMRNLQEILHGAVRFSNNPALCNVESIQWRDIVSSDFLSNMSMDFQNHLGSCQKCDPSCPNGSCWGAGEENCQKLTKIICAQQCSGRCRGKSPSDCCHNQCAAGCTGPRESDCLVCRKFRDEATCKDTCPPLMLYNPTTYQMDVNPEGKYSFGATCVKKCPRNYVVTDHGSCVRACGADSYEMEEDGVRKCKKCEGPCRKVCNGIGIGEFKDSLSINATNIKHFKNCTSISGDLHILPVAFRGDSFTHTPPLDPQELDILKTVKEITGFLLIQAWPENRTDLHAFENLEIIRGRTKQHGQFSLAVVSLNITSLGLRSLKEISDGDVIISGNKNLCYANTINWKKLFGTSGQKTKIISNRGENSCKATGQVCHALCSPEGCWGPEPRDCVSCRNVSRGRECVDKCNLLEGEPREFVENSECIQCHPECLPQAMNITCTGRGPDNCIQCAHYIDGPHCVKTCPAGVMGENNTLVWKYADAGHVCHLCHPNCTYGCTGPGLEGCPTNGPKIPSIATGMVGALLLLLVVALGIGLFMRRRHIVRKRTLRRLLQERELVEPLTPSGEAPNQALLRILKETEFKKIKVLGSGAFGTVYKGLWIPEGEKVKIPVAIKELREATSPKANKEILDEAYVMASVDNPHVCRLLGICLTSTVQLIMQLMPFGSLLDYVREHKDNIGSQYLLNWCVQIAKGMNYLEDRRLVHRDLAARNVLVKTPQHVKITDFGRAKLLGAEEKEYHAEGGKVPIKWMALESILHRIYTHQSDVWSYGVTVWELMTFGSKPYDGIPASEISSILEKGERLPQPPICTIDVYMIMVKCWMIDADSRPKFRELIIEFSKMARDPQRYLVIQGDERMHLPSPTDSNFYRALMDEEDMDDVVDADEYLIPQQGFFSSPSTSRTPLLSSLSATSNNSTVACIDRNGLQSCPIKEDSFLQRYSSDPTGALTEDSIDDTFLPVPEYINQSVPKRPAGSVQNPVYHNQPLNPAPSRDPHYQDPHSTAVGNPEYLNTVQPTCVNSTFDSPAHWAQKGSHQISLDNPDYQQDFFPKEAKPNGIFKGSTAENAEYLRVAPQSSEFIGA

IC50 [1] [nM] | IC50 [2] [nM] | IC50 [3] [nM] | GI50 (BaF3 [4]; Mus musculus, BaF3) [nM] | GI50 (BaF3 [5]; Mus musculus, BaF3) [nM] | GI50 (BaF3 [6]; Mus musculus, BaF3) [nM] | GI50 (BaF3 [4]) [nM] | GI50 (BaF3 [5]) [nM] | GI50 (BaF3 [6]) [nM] | Structure (SMILES)
> 5000 | > 5000 | > 5000 | – | – | – | – | – | – | CC(C)Oc1cc(Nc2ccnc(-c3cnn(S(=O)(=O)C4CC4)c3)n2)ncc1C(=O)N1CC(C(C)(C)O)C1
552 | 51 | 72 | – | – | – | – | – | – | CC(C)Nc1cc(Nc2ccnc(-c3cnn(S(=O)(=O)C4CC4)c3)n2)ncc1C(=O)N1CC(C(C)(C)O)C1
> 5000 | 300 | 450 | – | – | – | – | – | – | CC[C@H](C)Nc1cc(Nc2ccnc(-c3cnn(S(=O)(=O)C4CC4)c3)n2)ncc1C(=O)N(C)C
45 | 3.6 | 3.6 | 68 | 927 | 163 | – | – | – | CC[C@H](C)Nc1cc(Nc2ccnc(-c3cnn(S(=O)(=O)C4CC4)c3)n2)ncc1C(=O)NC
– | – | – | 156 | 1660 | 452 | – | – | – | CC[C@H](C)Nc1cc(Nc2ccnc(-c3cnn(S(=O)(=O)C4CC4)c3)n2)ncc1C(=O)NC1CCOCC1
55 | 3.7 | 4.5 | 56 | 1050 | 129 | – | – | – | CC[C@H](C)Nc1cc(Nc2ccnc(-c3cnn(S(=O)(=O)C4CC4)c3)n2)ncc1C(=O)NCCCF
> 5000 | 4880 | > 5000 | – | – | – | – | – | – | CCNS(=O)(=O)c1cnc(Nc2ccnc(-c3cnn(S(=O)(=O)C4CC4)c3)n2)cc1N[C@@H](C)CC
235 | 22 | 30 | – | – | – | – | – | – | CC[C@H](C)Nc1cc(Nc2ccnc(-c3cnn(S(=O)(=O)C4CC4)c3)n2)ncc1C(=O)N1CC(C(C)(C)O)C1
– | – | – | 35 | 1080 | 81 | – | – | – | CC[C@H](C)Nc1cc(Nc2ccnc(-c3cnn(S(=O)(=O)C4CC4)c3)n2)ncc1C(=O)NCCC(F)F
212 | 11 | 13 | – | – | – | – | – | – | CCC(=O)c1cnc(Nc2ccnc(-c3cnn(S(=O)(=O)C4CC4)c3)n2)cc1N[C@@H](C)CC
– | – | – | – | – | – | 2060 | 107 | 1290 | C=CC(=O)Nc1cc(Nc2nccc(-c3cn(C)c4ccccc34)n2)c(OC)cc1N(C)CCN(C)C [OSIMERTINIB]
265 | 10 | 11 | 193 | 1220 | 446 | – | – | – | CC[C@H](C)Nc1cc(Nc2ccnc(-c3cnn(S(=O)(=O)C4CC4)c3)n2)ncc1C(=O)NCCN(C)C
77 | 5.6 | 6 | 72 | 1270 | 191 | – | – | – | CCNC(=O)c1cnc(Nc2ccnc(-c3cnn(S(=O)(=O)C4CC4)c3)n2)cc1N[C@@H](C)CC

Source: ChEMBL document CHEMBL5356962, “Synthesis, activity, and their relationships of 2,4-diaminonicotinamide derivatives as EGFR inhibitors targeting C797S mutation” (Bioorg Med Chem Lett, 2024)
